Results from patent US10766882B2, “1,2-naphthoquinone based derivative and method of preparing the same” (YUNGJIN PHARM. CO., LTD., priority 2013, dated 2020).

Test system: C57BL/6J Lep ob/ob mice
Assay: Weight loss effects in obese mice (ob/ob)
Assay type: in vivo
Conditions: vs 0.1% SLS controls
Summary of the method: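 Male-unspecified C57BL/6J Lep ob/ob mice (6–15 weeks old, n=3 per group) on low-fat chow received compound by daily oral gavage (40–150 mg/kg, 10 ml/kg) for 6 days to 2 weeks, with 0.1% SLS vehicle as control. Body weight was recorded daily, gain calculated from day 1 to the day before termination, and food intake measured twice weekly.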

[1] = Exp. Ex. 3-1, FIG. 1: 10 week-old ob/ob mice, 40, 80, 120 mg/kg oral once every day, two weeks
[2] = Exp. Ex. 3-2, FIG. 2: 6 week-old ob/ob mice, 100 mg/kg oral
[3] = Exp. Ex. 3-10, FIG. 13: 6 week-old ob/ob mice, 100 mg/kg oral, two weeks
[4] = Exp. Ex. 3-11, FIG. 14: 6.5 week-old ob/ob mice, 100 mg/kg oral, one week
[5] = Exp. Ex. 3-12, FIG. 15: 6 week-old ob/ob mice, 100 mg/kg oral, two weeks
[6] = Exp. Ex. 3-13, FIG. 16: 6 week-old ob/ob mice, 100 mg/kg oral, one week

CC(C)c1nc2c([nH]1)C(=O)C(=O)c1ccccc1-2 [Example 1, 2-isopropyl-1H-naphtho[2,1-d]imidazole-4,5-dione]
intake amount [1]: significantly decreased
weight change [1]: significantly decreased
weight increase ratio [1]: significantly decreased
intake amount [2]: significantly decreased
weight change [2]: significantly decreased
weight increase ratio [2]: significantly decreased
intake amount [3]: significantly decreased in some sections
weight change [3]: significantly decreased in some sections
weight increase ratio [3]: significantly decreased in some sections
intake amount [4]: significantly decreased in some sections
weight change [4]: significantly decreased in some sections
weight increase ratio [4]: significantly decreased in some sections
intake amount [5]: significantly decreased in some sections
weight change [5]: significantly decreased in some sections
weight increase ratio [5]: significantly decreased in some sections
intake amount [6]: significantly decreased in some sections
weight change [6]: significantly decreased in some sections
weight increase ratio [6]: significantly decreased in some sections
